Measurements as given in the NIST ThermoML archive (doi:10.1016/j.fluid.2016.09.021).
± gives the expanded uncertainty stated by the source.

Settings: Liquid, Vibrating tube method

CCCCCCC [heptane]
mass density [kg/m3]
Settings | 293 K | 313 K | 333 K | 353 K | 373 K | 393 K | 413 K | 433 K | 448 K | 468 K
2100 kPa | 687.2 ± 2 | 671.9 ± 2 | 654.8 ± 2 | 636.1 ± 2 | 616.9 ± 2 | 596.5 ± 2 | 574.1 ± 2 | 550.1 ± 2 | 531.1 ± 2 | 501.1 ± 2
3000 kPa | 688.1 ± 2 | 672.9 ± 2 | 656 ± 2 | 637.6 ± 2 | 618.6 ± 2 | 598.7 ± 2 | 577 ± 2 | 553.9 ± 2 | 535.6 ± 2 | 507.8 ± 2
4000 kPa | 688.9 ± 2 | 673.9 ± 2 | 657.7 ± 2 | 639.1 ± 2 | 620.3 ± 2 | 600.8 ± 2 | 579.6 ± 2 | 557.5 ± 2 | 539.8 ± 2 | 513.4 ± 2
5000 kPa | 689.8 ± 2 | 674.8 ± 2 | 658.4 ± 2 | 640.4 ± 2 | 622 ± 2 | 602.8 ± 2 | 582.1 ± 2 | 560.7 ± 2 | 543.6 ± 2 | 518.6 ± 2
10000 kPa | 694 ± 2 | 679.4 ± 2 | 663.9 ± 2 | 647.1 ± 2 | 629.9 ± 2 | 612.2 ± 2 | 593.6 ± 2 | 574.6 ± 2 | 560 ± 2 | 539.1 ± 2
20000 kPa | 701.8 ± 2 | 688 ± 2.1 | 673.8 ± 2.1 | 658.5 ± 2.1 | 643.2 ± 2.1 | 627.8 ± 2.1 | 611.9 ± 2.1 | 595.4 ± 2.1 | 583 ± 2.1 | 566.5 ± 2.1
30000 kPa | 708.7 ± 2.1 | 695.4 ± 2.1 | 682.3 ± 2.1 | 668 ± 2.1 | 654.1 ± 2.1 | 640.2 ± 2.1 | 626 ± 2.1 | 611.5 ± 2.1 | 600.3 ± 2.1 | 586.2 ± 2.1
40000 kPa | 714.8 ± 2.1 | 702.2 ± 2.1 | 689.5 ± 2.1 | 676.7 ± 2.1 | 663.6 ± 2.1 | 650.8 ± 2.1 | 637.6 ± 2.1 | 624.3 ± 2.1 | 614.4 ± 2.2 | 601.3 ± 2.2
49900 kPa | 720.8 ± 2.1 | 708.5 ± 2.1 | 696.5 ± 2.1 | 684.5 ± 2.1 | 672 ± 2.2 | 659.9 ± 2.2 | 647.8 ± 2.2 | 635.2 ± 2.2 | 626.2 ± 2.2 | 614.2 ± 2.2
59900 kPa | 726.4 ± 2.2 | 714.3 ± 2.2 | 703.1 ± 2.2 | 691.3 ± 2.2 | 679.6 ± 2.2 | 668.3 ± 2.2 | 656.9 ± 2.2 | 644.7 ± 2.2 | 636.6 ± 2.2 | 625.3 ± 2.3
69900 kPa | 731.6 ± 2.2 | 720 ± 2.2 | 708.9 ± 2.2 | 697.9 ± 2.2 | 686.7 ± 2.2 | 675.9 ± 2.2 | 664.7 ± 2.3 | 653.5 ± 2.3 | 646.2 ± 2.3 | 635.2 ± 2.3
79900 kPa | 736.8 ± 2.2 | 725.2 ± 2.2 | 714.5 ± 2.2 | 703.8 ± 2.3 | 693.3 ± 2.3 | 682.9 ± 2.3 | 672.4 ± 2.3 | 661.6 ± 2.3 | 654.4 ± 2.3 | 644.1 ± 2.4
89900 kPa | 741.5 ± 2.3 | 730.3 ± 2.3 | 720 ± 2.3 | 709.7 ± 2.3 | 699.4 ± 2.3 | 689.5 ± 2.3 | 679.3 ± 2.4 | 669 ± 2.4 | 661.8 ± 2.4 | 652.3 ± 2.4
99900 kPa | 746.1 ± 2.3 | 735.1 ± 2.3 | 725.2 ± 2.3 | 715 ± 2.3 | 705.2 ± 2.4 | 695.7 ± 2.4 | 685.8 ± 2.4 | 676 ± 2.4 | 669.2 ± 2.4 | 659.9 ± 2.5
109900 kPa | 750.6 ± 2.3 | 739.9 ± 2.3 | 729.8 ± 2.4 | 720.3 ± 2.4 | 710.7 ± 2.4 | 701.4 ± 2.4 | 692.2 ± 2.5 | 682.3 ± 2.5 | 675.8 ± 2.5 | 667.2 ± 2.5
119900 kPa | 754.9 ± 2.4 | 744.3 ± 2.4 | 734.7 ± 2.4 | 725.3 ± 2.4 | 716 ± 2.5 | 706.8 ± 2.5 | 698 ± 2.5 | 688.5 ± 2.5 | 682.3 ± 2.5 | 673.9 ± 2.6
129900 kPa | 759.2 ± 2.4 | 748.7 ± 2.4 | 739.3 ± 2.5 | 730.1 ± 2.5 | 720.9 ± 2.5 | 712.1 ± 2.5 | 703.6 ± 2.6 | 694.3 ± 2.6 | 688.4 ± 2.6 | 679.9 ± 2.6
134900 kPa | 761.2 ± 2.4 | 751 ± 2.4 | 741.4 ± 2.5 | 732.4 ± 2.5 | 723.3 ± 2.5 | 714.7 ± 2.6 | 706.2 ± 2.6 | 697.2 ± 2.6 | 691.4 ± 2.6 | 682.8 ± 2.7
137400 kPa | 762.2 ± 2.4 | 751.9 ± 2.5 | 742.6 ± 2.5 | 733.5 ± 2.5 | 724.5 ± 2.5 | 715.8 ± 2.6 | 707.4 ± 2.6 | 698.6 ± 2.6 | 692.6 ± 2.6 | 684.3 ± 2.7
